Source: paper PMC7395068, “The evolution of strategies to minimise the risk of human drug-induced liver injury (DILI) in drug discovery and development” (Archives of Toxicology, 2020)
Like-named read-outs stand apart in the source and are kept apart here.

Experiments:
[1] = Plasma free fraction (fu) and unbound Cmax (Cmax,u); assay type: in vitro ADME, human; settings: unbound plasma Cmax
Description: The prediction of DILI severity was evaluated further using the 3D combined HCI assays using plasma-free fraction. The majority of fu values were obtained from literature, when unavailable in-house prediction was utilised. Unbound plasma Cmax concentrations (Cmax,u) were derived by multiplying total plasma Cmax with the corresponding free fraction (fu) for each compound.

human hepatocytes = settings: cited from earlier work
[2] = read-out: Human plasma Cmax; total plasma Cmax.tot, median of 9 literature references; cited from earlier work
[3] = plasma free fraction; cited from earlier work
[4] = tested on: isolated mouse liver mitochondria; settings: In vitro Assay; ref Porceddu 2012; cited from earlier work
hLiMTs [5] = assay: Combined HCI (HCS) and cellular ATP 3D assay in hLiMTs; settings: for hLiMTs <25x Avg Cmax ATP / hLiMTs <100x Avg Cmaxu ATP: ATP endpoint; for hLiMTs <25x Avg Cmax ATP / hLiMTs <25x Avg Cmax HCS / hLiMTs <25x Avg Cmax All: cut-off <25x Avg Cmax; for hLiMTs <100x Avg Cmaxu ATP / hLiMTs <100x Avg Cmaxu HCS / hLiMTs <100x Avg Cmaxu All: cut-off <100x Avg Cmaxu; for hLiMTs <25x Avg Cmax HCS / hLiMTs <100x Avg Cmaxu HCS: HCS endpoints; for hLiMTs <25x Avg Cmax All: all endpoints (ATP and HCS); for hLiMTs Cmax max All / hLiMTs Cmax min All / hLiMTs <10 uM All / hLiMTs <100x Avg Cmaxu All: all endpoints; for hLiMTs Cmax max All: Cmax max used; for hLiMTs Cmax min All: Cmax min used; for hLiMTs <10 uM All: cut-off <10 uM
Description: 3D spheroid models consisting of either primary human hepatocytes with non-parenchymal cells (hLiMT’s) or HepaRG cells (HepaRG spheroids) were assessed for size (MS), oxidative stress (OS), MMP, mitochondrial mass (MM), GSH and cellular ATP content following drug exposure. Fluorescent images are acquired using the confocal mode of an ArrayScan™ XTI HCI reader (ThermoScientific) following which cellular ATP was measured using 3D CellTiter-Glo (Promega).

HepaRG spheroids = assay: Combined HCI (HCS) and cellular ATP 3D assay in HepaRG spheroids; settings: for HepaRG <25x Avg Cmax ATP / HepaRG <100x Avg Cmaxu ATP: ATP endpoint; for HepaRG <25x Avg Cmax ATP / HepaRG <25x Avg Cmax HCS / HepaRG <25x Avg Cmax All: cut-off <25x Avg Cmax; for HepaRG <100x Avg Cmaxu ATP / HepaRG <100x Avg Cmaxu HCS / HepaRG <100x Avg Cmaxu All: cut-off <100x Avg Cmaxu; for HepaRG <25x Avg Cmax HCS / HepaRG <100x Avg Cmaxu HCS: HCS endpoints; for HepaRG <25x Avg Cmax All: all endpoints (ATP and HCS); for HepaRG Cmax max All / HepaRG Cmax min All / HepaRG <10 uM All / HepaRG <100x Avg Cmaxu All: all endpoints; for HepaRG Cmax max All: Cmax max used; for HepaRG Cmax min All: Cmax min used; for HepaRG <10 uM All: cut-off <10 uM; for AC50 / minimal effective concentration: Homo sapiens; for HepaRG <25x Avg Cmax ATP / HepaRG <100x Avg Cmaxu ATP / HepaRG <25x Avg Cmax HCS / HepaRG <100x Avg Cmaxu HCS / HepaRG <25x Avg Cmax All / HepaRG Cmax max All / HepaRG Cmax min All / HepaRG <10 uM All / HepaRG <100x Avg Cmaxu All / AC50 / minimal effective concentration: HepaRG; for DILI prediction HepaRG spheroids (HCS-MEC): Microtissue model structural based (HCI), combined HCS and ATP, MEC < 25 × Cmax.tot cut-off
[6] = cited from earlier work
[7] = tested on: primary human hepatocytes, NIH3T3 fibroblasts, BSEP, CYP3A4; settings: cited from earlier work
HepG2 cells = settings: cited from earlier work
PHH = settings: cited from earlier work
hLiMTs [8] = settings: cited from earlier work
[9] = cited from earlier work; remark: listed apart in the source
[10] = tested on: HepG2 cells, primary human hepatocytes; settings: In vitro Assay; ref Garside 2014; cited from earlier work
[11] = In vitro Assay, ref Schadt 2015
[12] = In vitro Assay, ref Proctor 2017

## CC[C@H]1OC(=O)[C@H](C)[C@@H](O[C@H]2C[C@@](C)(OC)[C@@H](O)[C@H](C)O2)[C@H](C)[C@@H](O[C@@H]2O[C@H](C)C[C@H](N(C)C)[C@H]2O)[C@](C)(O)C[C@@H](C)C(=O)[C@H](C)[C@@H](O)[C@]1(C)O [erythromycin]
[1]
  Human plasma Cmax,u: 0.620 µM
Human hepatocytes; In vitro Assay, ref Xu 2008
  Structural based (HCI): -VE
Human hepatocytes; Structural based (HCI), human hepatocytes, ref Xu et al. 2008
  DILI in vitro assay prediction, Xu (2008): -VE
[2]
  Cmax: 6.2 µM
[3]
  fu: 0.100
[4]
  in vitro data EC2<=1x Cmax: +VE
hLiMTs [5]; Microtissue model structural based (HCI), combined HCS and ATP, MEC < 25 × Cmax.tot cut-off
  DILI prediction hLiMTs (HCS-MEC): -VE
hLiMTs [5]
  hLiMTs <25x Avg Cmax ATP: -ve
  hLiMTs <100x Avg Cmaxu ATP: -ve
  hLiMTs <25x Avg Cmax HCS: -ve
  hLiMTs <100x Avg Cmaxu HCS: -ve
  hLiMTs <25x Avg Cmax All: -ve
  hLiMTs Cmax max All: -ve
  hLiMTs Cmax min All: -ve
  hLiMTs <10 uM All: -ve
  hLiMTs <100x Avg Cmaxu All: -ve
HepaRG spheroids
  HepaRG <25x Avg Cmax ATP: +ve
  HepaRG <100x Avg Cmaxu ATP: -ve
  HepaRG <25x Avg Cmax HCS: +ve
  HepaRG <100x Avg Cmaxu HCS: +ve (<100x Avg Cmaxu)
  HepaRG <25x Avg Cmax All: +ve
  HepaRG Cmax max All: +ve
  HepaRG Cmax min All: +ve
  HepaRG <10 uM All: -ve
  HepaRG <100x Avg Cmaxu All: +ve (<100x Avg Cmaxu)
  DILI prediction HepaRG spheroids (HCS-MEC): +VE (MEC < 25 × Cmax.tot cut-off)
HepaRG spheroids; read-out: ATP endpoint AC50
  AC50: 214 µM
HepaRG spheroids; read-out: ATP endpoint MEC
  minimal effective concentration: 128 µM
HepaRG spheroids; read-out: HCS endpoint AC50
  AC50: 294 µM
HepaRG spheroids; read-out: HCS endpoint MEC
  minimal effective concentration: 38.1 µM

## CN(C)C(=N)N=C(N)N [metformin]
[1]
  Human plasma Cmax,u: 7.743 µM
[6]; LTKB DILIrank category, ref Chen et al. 2016
  DILI severity category (Chen et al. [2016]): Less
[6]; human DILI classification, LTKB DILIrank, ref Chen et al. 2016
  DILI severity category (Chen 2016): Less
[6]; human DILI severity, ref Chen et al.
  DILI severity category: Less
[6]; ref Chen 2016
  DILI +VE (5-8), DILI -VE (-4): +VE
  DILI severity category: vLess-DILI-Concern
[7]; BSEP & Metabolism based, ref Schadt et al. 2015
  DILI in vitro assay prediction, Schadt (2015): -VE
[7]; [11]
  Cellular toxicity (3T3 cells): -VE
  Combined Assay: -VE
  GSH adduct HML: -VE
  Hepatocyte cellular toxicity: -VE
  MitoTox 3T3: -VE
  TDI CYP3A4: -VE
  hBSEP inhibition: -VE
HepG2 cells; In vitro Assay, ref O'Brien 2006
  Structural based (HCI): +VE
HepG2 cells; Structural based (HCI), HepG2, ref O'Brien et al. 2006
  DILI in vitro assay prediction, O'Brien (2006): +VE (lowest HCI endpoint IC50 (or in the absence of dose–response < 100 µM) < 30 × total human plasma exposure levels (Cmax.tot))
PHH; 2D PHH, ATP, IC50 < 100 × Cmax.tot, ref Proctor et al. 2017
  PHH/100xCmax, Proctor (2017): -VE
PHH; 2D PHH, ATP, IC50 threshold 100 µM, ref Proctor et al. 2017
  PHH/100uM, Proctor (2017): -VE
PHH; [12]
  PHH ATP <100uM: -VE
hLiMTs [8]; [12]
  hLiMTs ATP <100uM: -VE
hLiMTs [8]; hLiMTs, ATP, IC50 < 100 × Cmax.tot, ref Proctor et al. 2017
  hLiMTs/100xCmax, Proctor (2017): -VE
hLiMTs [8]; hLiMTs, ATP, IC50 threshold 100 µM, ref Proctor et al. 2017
  hLiMTs/100uM, Proctor (2017): -VE
[2]
  Cmax: 7.82 µM
[3]
  fu: 0.990
[9]; Chen et al. 2016 or literature alignment, ref Chen et al. 2016
  Assigned DILI category: 2
[9]; ref Garside 2014
  In vivo DILI: +VE
[9]; ref O'Brien 2006
  In vivo DILI: -VE
[9]; ref Porceddu 2012
  In vivo DILI: +VE
[9]; ref Proctor 2017
  In vivo DILI: +VE
[9]; ref Schadt 2015
  In vivo DILI: -VE
[10]
  Cluster 1-6 +VE Assay: +VE
[4]
  in vitro data EC2<=1x Cmax: +VE
  in vitro data EC20<=2uM: -VE
hLiMTs [5]; HCS endpoints only, 25 × Cmax.tot cut-off
  DILI prediction hLiMTs, HCI alone: detection
hLiMTs [5]; Homo sapiens, read-out: ATP endpoint AC50
  AC50: 768 µM
hLiMTs [5]; Homo sapiens, read-out: ATP endpoint MEC
  minimal effective concentration: 503 µM
hLiMTs [5]; Homo sapiens, read-out: HCS endpoint MEC
  minimal effective concentration: 28.1 µM
hLiMTs [5]; cellular ATP only, 25 × Cmax.tot cut-off
  DILI prediction hLiMTs, ATP alone: unpredicted
hLiMTs [5]
  hLiMTs <25x Avg Cmax ATP: -ve
  hLiMTs <100x Avg Cmaxu ATP: +ve (<100x Avg Cmaxu)
  hLiMTs <25x Avg Cmax HCS: +ve
  hLiMTs <100x Avg Cmaxu HCS: +ve (<100x Avg Cmaxu)
  hLiMTs <25x Avg Cmax All: +ve
  hLiMTs Cmax max All: +ve
  hLiMTs Cmax min All: +ve
  hLiMTs <10 uM All: -ve
  hLiMTs <100x Avg Cmaxu All: +ve (<100x Avg Cmaxu)
HepaRG spheroids
  HepaRG <25x Avg Cmax ATP: -ve
  HepaRG <100x Avg Cmaxu ATP: -ve
  HepaRG <25x Avg Cmax HCS: -ve
  HepaRG <100x Avg Cmaxu HCS: -ve
  HepaRG <25x Avg Cmax All: -ve
  HepaRG Cmax max All: -ve
  HepaRG Cmax min All: -ve
  HepaRG <10 uM All: -ve
  HepaRG <100x Avg Cmaxu All: -ve
  DILI prediction HepaRG spheroids (HCS-MEC): -VE
